Data on 1 compound can be found in patent US20200405699A1, “TREATING SICKLE CELL DISEASE WITH A PYRUVATE KINASE R ACTIVATING COMPOUND” (FORMA Therapeutics, Inc., priority 2018, published 2020).

Data set [1] can be described thus: PK/PD study in wild type mice, tolerability. Type of data set: in vivo. As to conditions: oral QD x7, both studies. The method, then: (§1) Two pharmacokinetic (PK)/phamacodynamic (PD) studies were conducted in Balb/c mice that were administered Compound 1 once daily by oral gavage (formulated in 10% Cremophor EL/10% PG/80% DI water) for 7 days (QD×7) at doses of 0 (vehicle), 3.75, 7.5, 15, 30, 60 mg/kg (Study 1); 0 (vehicle), 7.5, 15, 30, 60, 120, or 240 mg/kg (Study 2). On the 7th day, whole blood was collected 24 hours after dosing and snap frozen. Samples were later thawed and analyzed by LC/MS for 2,3-DPG and ATP levels.

Data set [2] concerns 2,3-DPG blood levels. Kind of data set: SAD/MAD study in healthy volunteers, blood 2,3-DPG levels (LC-MS/MS). The class given is in vivo, human. The source says: This is a first-in-human (FIH), Phase 1 study of Compound 1 that will characterize the safety, PK, and PD of Compound 1 after a single dose and after repeated dosing first in healthy adult volunteers and then in adolescents or adults with sickle cell disease. Initially, a dose range of Compound 1 in single ascending dose (SAD) escalation cohorts will be explored in healthy subjects. Enrollment of healthy subjects into 2-week multiple ascending dose (MAD) escalation cohorts will be initiated once the safety and PK from at least two SAD cohorts is available to inform the doses for the 2-week MAD portion of the study. The MAD cohorts will then run in parallel to the single dose cohorts. A single dose cohort is planned to understand food effects (FE) on the PK of Compound 1. […] Multiple dose studies in SCD subjects will then be initiated upon completion of MAD studies in healthy volunteers. Compound 1 will be administered in 25 mg and 100 mg tablets delivered orally.
Four healthy SAD cohorts were evaluated at doses of 200, 400, 700, and 1000 mg, and four healthy MAD cohorts received 200 to 600 mg total daily doses for 14 days at QD or BID dosing (100 mg BID, 200 mg BID, 300 mg BID, and 400 mg QD). In the food effect (FE) cohort, 10 healthy subjects received 200 mg of Compound 1 QD with and without food.
In the SAD cohorts, the subjects' blood 2,3-DPG levels were measured periodically after dosing by a qualified LC-MS/MS method for the quantitation of 2,3-DPG in blood. Decreased 2,3-DPG blood levels were observed 6 hours following a single dose of Compound 1 at all dose levels (earlier timepoints were not collected). Maximum decreases in 2,3-DPG levels generally occurred ˜24 hours after the first dose with the reduction sustained ˜48-72 hr postdose. Table 12 reports the median percentage change in 2,3-DPG blood levels, relative to baseline, measured over time in healthy volunteers after a single dose of Compound 1 (200 mg, 400 mg, 700 mg, or 1000 mg) or placebo. Accordingly, the median reduction in the concentration of 2,3-DPG, relative to baseline, was at least about 30% at all dose levels tested 24 hours after administration of the single dose.
In the MAD cohorts, the subjects' blood 2,3-DPG levels were measured periodically after dosing by a qualified LC-MS/MS method for the quantitation of 2,3-DPG in blood. The maximum decrease in 2,3-DPG on Day 14 was 55% from baseline (median). […] Table 13 reports the median percentage change in 2,3-DPG blood levels, relative to baseline, measured over time after the first dose on days 1 and 14 in healthy volunteers who received daily doses of Compound 1 (100 mg BID, 200 mg BID, or 300 mg BID) or placebo for 14 days. Accordingly, the median reduction in the concentration of 2,3-DPG, relative to baseline, was at least about 25% at all dose levels tested 24 hours after administration of the first dose on day 1 and at least about 40% at all dose levels tested 24 hours after administration of the first dose on day 14.
The following procedures are employed for the analysis of ATP and 2,3-DPG in human whole blood K2EDTA using a protein precipitation extraction procedure and analysis by LC-MS/MS.

The nature of data set [3]: PK/PD study in wild type mice, exposure. Type of data set: in vivo, Balb/c mice. Particulars: oral; for AUC(0-t): Balb/c, mouse, in vivo, read-out: AUC0-24. The method, then: as §1
In data set [4] the target is PKR-R510Q (Homo sapiens, UniProt P30613, R510Q). Kind of data set: Luminescence Assay (Kinase Glo Plus), PKR R510Q. The class given is biochemical. Particulars: read-out: AC50 (PKRR510Q). How it is done: For each tested compound, the ability to activate PKR was determined using the following Luminescence Assay. The effect of phosphorylation of adenosine-5′-diphosphate (ADP) by PKR is determined by the Kinase Glo Plus Assay (Promega) in the presence or absence of FBP (D-fructose-1,6-diphosphate; BOC Sciences, CAS: 81028-91-3) as follows. Unless otherwise indicated, all reagents are purchased from Sigma-Aldrich. All reagents are prepared in buffer containing 50 mM Tris-HCl, 100 mM KCl, 5 mM MgCl2, and 0.01% Triton X100, 0.03% BSA, and 1 mM DTT. Enzyme and PEP (phosphoenolpyruvate) are added at 2× to all wells of an assay-ready plate containing serial dilutions of test compounds or DMSO vehicle. Final enzyme concentrations for PKR(wt), PKR(R510Q), and PKR(G332S) are 0.8 nM, 0.8 nM, and 10 nM respectively. Final PEP concentration is 100 μM. The Enzyme/PEP mixture is incubated with compounds for 30 minutes at RT before the assay is initiated with the addition of 2×ADP and KinaseGloPlus. Final concentration of ADP is 100 μM. […] For assays containing FBP, that reagent is added at 30 μM upon reaction initiation. Reactions are allowed to progress for 45 minutes at RT until luminescence is recorded by the BMG PHERAstar FS Multilabel Reader. The compound is tested in triplicate at concentrations ranging from 42.5 μM to 2.2 nM in 0.83% DMSO. AC50 measurements were obtained by the standard four parameter fit algorithm of ActivityBase XE Runner (max, min, slope and AC50). The AC50 value for a compound is the concentration (μM) at which the activity along the four parameter logistic curve fit is halfway between minimum and maximum activity.
As set forth in Tables 2 and 3 below and in FIG. 1, AC50 values are defined as follows: ≤0.1 μM (+++); >0.1 μM and ≤1.0 μM (++); >1.0 μM and ≤40 μM (+); >40 μM (0).

Read-outs that look alike come from different tables or passages of the source.

Chain of PKR-R510Q (P30613 whole entry R510Q): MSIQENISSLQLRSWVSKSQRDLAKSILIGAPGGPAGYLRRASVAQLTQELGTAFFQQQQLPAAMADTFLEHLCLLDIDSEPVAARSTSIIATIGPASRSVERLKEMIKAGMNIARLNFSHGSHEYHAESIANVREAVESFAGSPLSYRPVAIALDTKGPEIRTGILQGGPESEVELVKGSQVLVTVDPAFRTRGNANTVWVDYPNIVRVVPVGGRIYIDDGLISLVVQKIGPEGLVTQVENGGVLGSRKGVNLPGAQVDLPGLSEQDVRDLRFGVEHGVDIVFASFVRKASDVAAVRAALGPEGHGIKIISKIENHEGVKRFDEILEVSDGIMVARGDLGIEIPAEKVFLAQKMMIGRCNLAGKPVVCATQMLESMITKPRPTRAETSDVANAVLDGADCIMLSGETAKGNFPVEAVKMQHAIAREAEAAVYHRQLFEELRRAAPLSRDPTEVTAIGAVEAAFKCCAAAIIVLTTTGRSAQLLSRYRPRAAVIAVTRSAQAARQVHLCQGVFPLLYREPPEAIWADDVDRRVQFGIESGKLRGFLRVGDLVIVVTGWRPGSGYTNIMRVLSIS

As to `O=C([C@H](CO)c1ccccc1)N1CC2=C(C1)CN(S(=O)(=O)c1cnc3c(c1)OCCO3)C2` (single isomer, unassigned) [Compound 1], the Adverse clinical signs entry in data set [1] is “No adverse clinical signs were observed”. Also, the “Body weight change compared with vehicle group” value in data set [1] is listed as “no differences in body weight change”. Moreover, in data set [2] (MAD cohorts, 72 hours after the final dose on Day 14), the “2,3-DPG levels after final dose” value is “had not returned to baseline levels”. In addition, the “Mean maximum reduction in concentration of 2,3-DPG” value in data set [2] (MAD study) is reported as “at least 50%”; in data set [2] (SAD study), “at least 40%”. Moreover, the “Median reduction in concentration of 2,3-DPG relative to baseline” value is recorded as “at least 25%” in data set [2] (MAD, all dose levels, 24 hours after first dose on day 1); “at least 40%” in data set [2] (MAD, all dose levels, 24 hours after first dose on day 14); “at least 30%” in data set [2] (all single dose levels tested, 24 hours after administration). In data set [2] (SAD cohorts), the “Time of maximum decrease in 2,3-DPG levels after first dose” value was roughly 24 h. Besides, the “Time postdose to which 2,3-DPG reduction was sustained” value in data set [2] (SAD cohorts) is 48 to 72 h. Also, the “PD half-life (2,3-DPG response)” value in data set [2] (healthy volunteers, calculated) is given as roughly 20 h. Also, the AUC(0-t) in data set [3] (doses ≥60 mg/kg) was greater than 4000 ng·h/mL; in data set [3] (doses ≥120 mg/kg), greater than 5200 ng·h/mL. Further, the “Dose dependence of exposure” value in data set [3] is “dose-proportional”. In data set [4], the half-maximal activity concentration (AC50) is no more than 100 nM.
